Measured values taken from patent publication US20220202705A1, “THERMORESPONSIVE HYDROGEL CONTAINING POLYMER MICROPARTICLES FOR NONINVASIVE OCULAR BIOLOGIC DELIVERY” (University of Pittsburgh - Of the Commonwealth System of …, priority 2016, published 2022).
Each block holds one molecule with its values, some of them ahead of it.

Legend:
[1] = 2 drops per day of 0.2% BT, 1-7% absorption, 0.66 mg brimonidine per mg BT
Description: Theoretical maximum and minimum amounts of BT absorption were also calculated as a basis for comparison for in vitro release from the BTMPs. This range was calculated by assuming a 50 μl drop and 2 drops administered per day at a rate of either 1% (minimum) or 7% (maximum) absorption (Ghate and Edelhauser, 2008). As the in vitro release methods measure base brimonidine and not the tartrate salt, a necessary conversion factor of 0.66 mg brimonidine for every 1 mg BT was incorporated in these calculations (Acheampong et al., 2002).

[2] = in vivo; cited from earlier work
[3] = tested on: New Zealand White rabbits; experiment: Post-mortem T1-weighted MRI 24 h after intravitreal injection of Gd-DOTA in thermoresponsive gel; format: in vivo, rabbit; settings: in hydrogel
Description: Scans were performed within one hour of sacrifice. Soluble Gd-DOTA without MP encapsulation was largely cleared from the injection site at 24 h, with only 56% and 59% signal intensity (relative to nearby muscle tissue) in the vitreous and anterior chamber, respectively. […] The spatiotemporal distribution of Gd-DOTA into the rest of the eye will also provide valuable data for future controlled release formulations of other ocular therapeutics, such as those targeting the posterior segment of the eye.

[4] = Loading and release of other drugs from microparticles embedded in the gel; format: physicochemical
Text: The loading and release of other drugs (moxiflxacin and vancomycin) with the microparticles embedded within the gel has also been confirmed.

[5] = In vitro NGF release from PLGA microspheres; format: physicochemical; settings: FIG. 15
Description: 1. Prepare aqueous solution of NGF in DI water at 100 ug/ml concentration
2. Add 200 ul of this NGF solution to 4 ml dichloromethane/PLGA solution (using 200 mg of desired PLGA—for microspheres in FIG. 1 this was acid terminated 50:50 lactic:glycolic MW=7-17,000 Da viscosity=0.16-0.24 dl/g)
3. Sonicate for 10 s at 25% amplitude
4. Immediately add to 60 ml of 2% PVA solution and homogenize at 2300 rpm for 1 min
5. Add to 80 ml of 1% PVA solution and stir at 600 rpm for 3 h
6. Wash 4 times (each wash: centrifuge 5-10 min at 1000 rpm, decant, resuspend in DI water)
7. Freeze under liquid N2 and place on lyophilizer until all water is gone
1. Add microspheres (10 mg microspheres/100 ul gel) just prior to use and gently mix to suspend homogeneously.

- therapeutic levels (theoretical brimonidine absorbed) [1]: 0.53 to 3.7 µg/day
Molecule: Brc1c(NC2=NCCN2)ccc2nccnc12 [Brimonidine, brimonidine]

Molecule: O=C([O-])CN(CCN(CC(=O)[O-])CC(=O)O)CCN(CC(=O)[O-])CC(=O)O.[Gd+3] [Gd-DTPA]
- ocular half-life [2]: 28.08 min

- signal intensity relative to muscle, anterior chamber [3]: 59%
- signal intensity relative to muscle, vitreous [3]: 56%
Molecule: O=C([O-])CN1CCN(CC(=O)[O-])CCN(CC(=O)O)CCN(CC(=O)[O-])CC1.[Gd+3] [Soluble Gd-DOTA, gadolinium-tetraazocyclododecanetetraacetic acid]

Molecule: CN[C@H](CC(C)C)C(=O)N[C@H]1C(=O)N[C@@H](CC(N)=O)C(=O)N[C@H]2C(=O)N[C@H]3C(=O)N[C@H](C(=O)N[C@H](C(=O)O)c4cc(O)cc(O)c4-c4cc3ccc4O)[C@H](O)c3ccc(c(Cl)c3)Oc3cc2cc(c3O[C@@H]2O[C@H](CO)[C@@H](O)[C@H](O)[C@H]2O[C@H]2C[C@](C)(N)[C@H](O)[C@H](C)O2)Oc2ccc(cc2Cl)[C@H]1O [vancomycin]
- loading and release with microparticles embedded within the gel [4]: confirmed

Molecule: Brimonidine tartrate [BT]
- ocular half-life [2]: 28.2 min

Molecule: NGF: nerve growth factor, released from NGF-loaded PLGA microspheres
- duration of NGF release [5]: approximately one week
